US20210236577A1, “LIVESTOCK FEED ADDITIVE” (DELACON BIOTECHNIK GMBH, priority 2018, published 2021)
Read-outs that look alike come from different tables or passages of the source.

Key:
[1] = system: broilers exposed to heat stress; test: Trial IV: growth performance of broilers under heat stress, naringin dose levels vs betaine; assay type: in vivo, Ross 308 male broilers; conditions: for effect on body weight and daily body weight gain vs negative control: pre-heat stress period d 0 to 21
Source text: 1152 one-day old Ross 308 male broilers from a total of 1400 were used in the experiment. Any day-old broilers, showing signs of health problems, injury, or of being too small or in poor condition were excluded in the selection process. Broilers were sexed at the hatchery. All day-old chicks were individually weighted and grouped according to weight. The birds were then assigned to the 36 pens (6 repetitions of 6 treatments), and each pen initially consisted of 34 broilers. On day 4 of the experiment in each pen, the weakest 2 broilers were removed and all pens were equated to 32 birds per pen by negative selection. Birds of the negative control group were fed the basal diet without any further phytogenic additive. The reference group was fed a diet providing 500 mg/kg feed betaine from a natural betaine source (Actibeet®, Agrana). To the diets of groups 3, 4, 5 and 6 the phytogenic premixes with compound “B” were added to achieve final dietary Naringin concentrations of 12/18/24/30 mg/kg of feed.
The trial was carried out at the Delacon Research Facility (Stošíkovice na Louce, Czech Republic). Birds were kept in floor pens, each having an area of 2.1 m^2 (1,65×1,275 m; 2.03 m^2 of usable area=not counting the space occupied with the feeder), with fresh wood shavings as bedding material. Stocking density at the end of the trial was 14,78 chicks/m^2 (38.7 kg/m^2). The building was supplied with artificial, programmable lights, automated central heating and forced ventilation. Temperature was set according to the breeders' recommendations from day 1 to day 21 of age. The onset of heat stress was on day 22 of age. Thereby a cyclic heat stress regime was applied. The heat stress period was from 09:00 in the morning until 17:00 in the afternoon. The average house temperature in this period was 34° C. The “cooling night period” was from 19:00 in the evening until 07:00 in the morning. The average room temperature in this period was 26° C. The time intervals from 07:00 to 09:00 in the morning and from 17:00 to 19:00 in the evening was used to gradually increase or decrease the temperature to 34° C. and 26° C., respectively. In order to increase the humidity of the chicken house under the heat stress regime, towels on the heat panels were moistened 5 times per hour during the heat stress period. Relative humidity was maintained at about 70-80%.
Birds were fed a basal diet, based on wheat, corn, and soybean meal. For each feeding period (starter/grower, grower/finisher) feed was calculated to be iso-nutritive (Table 6). Dietary nutrient concentrations were calculated to fulfill the current recommendations of the broilers according to the breeders' recommendations. According to the applied 2-phase-feeding, a starter/grower diet was offered from days 1 to 21 and a grower/finisher diet from days 22 to 42. The composition of the diets, used in trials IV, V, VI, for the single phases and the calculated nutrient contents are given in Table. All diets were offered to the birds as pelleted feed.
The statistical analyses were performed with the software package SAS. After checking the homogeneity of the data, means were compared by the usual test procedures (Tukey test). Statistical significance was declared at P 0.05, with 0.05<P 0.10 considered as a near-significant trend.

heat shock protein HSP70 = assay type: cell-based, Human
Source text: ID NO:1); β-actin reverse: [NT] NO:2); HSP70 forward: [NT] ID NO:3); HSP70 reverse: [NT] ID NO:4).

[2] = system: broilers exposed to heat stress; test: Trial V: growth performance of broilers under heat stress, combinations of naringin with different 1,8-cineole concentrations; assay type: in vivo, Ross 308 male broilers
Procedure: In the dose response trial for compound “B” (Trial IV) beneficial effects on the performance of the broilers under heat stress could be observed. […] Consequently in this trial the additional value of adding 1,8-Cineole (compound “A”) in a dose-dependent manner (6/12/24 mg/kg feed) to compound “B” at constantly 12 mg Naringin/kg diet was evaluated. The addition of 500 mg/kg betaine alone or 500 mg betaine+12 mg 1,8-Cineole/kg served as reference groups.
1224 one-day old Ross 308 male broilers from a total of 1400 were used in the experiment. Any day-old broilers, showing signs of health problems, injury, or of being too small or in poor condition were excluded in the selection process. Broilers were sexed at the hatchery. All day-old chicks were individually weighted and grouped according to weight. The birds were then assigned to the 36 pens (6 repetitions of 6 treatments), and each pen initially consisted of 34 broilers. On day 4 of the experiment in each pen, the weakest 2 broilers were removed and all pens were equated to 32 birds per pen by negative selection.
Birds of the negative control group were fed the basal diet without any further phytogenic additive. […]

Q: What does the source list for `C[C@@H]1O[C@@H](O[C@H]2[C@H](Oc3cc(O)c4c(c3)O[C@H](c3ccc(O)cc3)CC4=O)O[C@H](CO)[C@@H](O)[C@@H]2O)[C@H](O)[C@H](O)[C@H]1O` [B, Naringin]?
A: performance values (body weight/weight gain/FCR) vs betaine reference group ([1]; broilers under heat stress, 12 mg/kg Naringin complete diet vs 500 mg/kg betaine): slightly better than in the betaine reference group; body weight at day 42 compared with untreated control ([1]; heat stress d22 to 42, compound B groups 12-30 mg/kg): +80 to +140 g; final body weight compared to the negative control ([1]; heat stress d22 to 42, lowest compound B dose (12 mg/kg)): +140 g; effect on body weight and daily body weight gain vs negative control ([1]; all doses 12, 18, 24 and 30 mg/kg diet): +2.79 to +13%; effect on body weight and daily body weight gain vs negative control ([1]; lowest dose 12 mg/kg, significant): +13%; HSP 70 induction compared to untreated control cells (heat shock protein HSP70; CaCo2, 41° C. 1 hour, 60 mg Naringin/L, adverse effect): −23%; increase in HSP 70 induction compared to untreated control cells (heat shock protein HSP70; CaCo2, 41° C. 1 hour, Naringin 12 to 30 mg/L, significant): +24 to +27%; increase of HSP 70 induction compared to untreated control cells (heat shock protein HSP70; CaCo2, 41° C. 1 hour, lowest Naringin concentration tested (6 mg/L), not significant): +16%

Q: What does the source list for `C[N+](C)(C)CC(=O)[O-]` [betaine, N,N,N-Trimethylammonioacetate, reference compound]?
A: increase of daily weight gain compared to the negative control ([2]; pre-heat stress period, betaine 500 mg/kg alone or plus 12 mg/kg compound A): 2.5%; growth promoting effect / increase of growth performance compared to the negative control ([2]; under heat stress conditions d22 to 42, betaine 500 mg/kg, all tested combinations AB): +2.0%; body weight at day 42 compared with untreated control ([1]; heat stress d22 to 42, betaine 500 mg/kg): +170 g; effect on body weight and daily body weight gain vs negative control ([1]; betaine 500 mg/kg): +4.9%; heat shock protein 70 induction compared to untreated control cells (heat shock protein HSP70; CaCo2, 41° C. 1 hour, 100, 250 and 1000 mg/L betaine): −7 to −19%; heat shock protein 70 response compared to untreated control cells (heat shock protein HSP70; CaCo2, 41° C. 1 hour, 500 and 2000 mg/L betaine, non-significant): +10 to +12%

Q: Which results are given for `CC12CCC(CC1)C(C)(C)O2` [A, 1,8 Cineole]?
A: increase in HSP 70 induction compared to control cells (heat shock protein HSP70; CaCo2, 41° C. 1 hour, 7.5 mg 1,8 Cineole/L): 15%; increase of HSP 70 gene expression (heat shock protein HSP70; CaCo2, 41° C. 1 hour, 15 mg 1,8-Cineole/L): 22%; increase of HSP 70 gene expression (heat shock protein HSP70; CaCo2, 41° C. 1 hour, 30 mg 1,8-Cineole/L): 24%; increase of HSP 70 expression (heat shock protein HSP70; CaCo2, 41° C. 1 hour, highest dose tested, 45 mg 1,8-Cineole/L): 44%; increase of HSP 70 expression / induction, single substances alone vs combination (FIG. 3 E) (heat shock protein HSP70; CaCo2 under heat stress, at the tested levels (not given)): 20.8%

Q: Betalain [C] was tested. Which “HSP 70 induction in CaCo2 cells over the control (in words)” value (heat shock protein HSP70; Caco-2) did it give?
A: improve HSP 70 induction
